Literature values, collected in patent publication US20120040895A1, “PEPTIDE AVAILABILITY” (priority 2008, published 2012).

CC[C@H](C)[C@H](N)C(=O)N1CCC[C@H]1C(=O)N1CCC[C@H]1C(=O)O [IPP, Isoleucine-Proline-Proline]
Further increase of AUC when consumed with the meal (yoghurt drink consumed with breakfast, versus fasted state): 30% | Increase of plasma IPP level (area under the concentration vs. time curve) compared to a control drink (yoghurt drink drunk in overnight fasted state 30 min prior to breakfast): more than two-fold
